Test in all cases: Minimum Inhibitory Concentration (MIC), agar dilution, standard strains
(In agar dilution, organisms are placed on agar that contains the substance at set levels.)

Assay [1] has as its system S. aureus 241. It is filed as cell-based, Staphylococcus aureus. The conditions noted are these: Table 1, Mueller-Hinton agar, 37° C., 20 hours; for MIC: Staphylococcus aureus, 241, read-out: Minimum Inhibitory Concentration (MIC), S. aureus 241. The protocol:
(§1) Minimum Inhibitory Concentration (MIC)
(§2) The effectiveness of the compound according to the present invention was determined by obtaining Minimum Inhibitory Concentration (MIC) of the compounds prepared by the above Examples (I-1 to I-33) and vancomycin, which is the known compound having a potent activity against gram-positive strains, as the control drug against the standard strains. Specifically, Minimum Inhibitory Concentration was obtained by diluting the test material with a double dilution method, dispersing them in Mueller-Hinton agar medium, inoculating each of the test strain having 10^7 cfu (colny forming unit) in an amount of 2:1 to the medium and then incubating them at 37° C. for 20 hours.

In assay [2] the test system is S. aureus 77. It is filed as cell-based, Staphylococcus aureus. Particulars: Table 1, Mueller-Hinton agar, 37° C., 20 hours; for MIC: Staphylococcus aureus, 77, read-out: Minimum Inhibitory Concentration (MIC), S. aureus 77. The protocol:
as §1, §2

The subject of assay [3] is Staphylococcus aureus giorgio. It is filed as cell-based. Particulars: Table 1, Mueller-Hinton agar, 37° C., 20 hours; for MIC: Staphylococcus aureus, read-out: Minimum Inhibitory Concentration (MIC), Staphylococcus aureus giorgio. The protocol:
as §1, §2

The test system of assay [4] is S. epidermidis R005. It is filed as cell-based. Particulars: Table 1, Mueller-Hinton agar, 37° C., 20 hours; for MIC: Staphylococcus epidermidis, R005, read-out: Minimum Inhibitory Concentration (MIC), S. epidermidis R005. On the procedure: as §1, §2
In assay [5] the test system is E. faecalis L239. It is filed as cell-based. The conditions noted are these: Table 1, Mueller-Hinton agar, 37° C., 20 hours; for MIC: Enterococcus faecalis, L239, read-out: Minimum Inhibitory Concentration (MIC), E. faecalis L239. On the procedure:
as §1, §2

Values after ≈ are worked out from the molar mass of the structure shown. Some results are limits rather than exact numbers.

As for `Cc1c(N)nc([S+]([O-])CSC2=C(C(=O)O)N3C(=O)[C@@H](NC(=O)CSc4cc(Cl)ccc4Cl)[C@H]3SC2)[n+](N)c1N` (stereo partly drawn) [Example I-23, (6R,7R)-1,4,6-triamino-2-[({[(2-carboxy-7-({2-[(2,5-dichlorophenyl)sulfan-yl]acetyl}amino)-8-oxo-5-thia-1-azabicyclo[4.2.0]oct-2-en-3-yl)]sulfanyl}methyl)sulfin-yl]-5-methylpyri midin-1-ium], in assay [1], the “Minimum Inhibitory Concentration (MIC), S. aureus 241” value is on record as >32 :g/ml. The “Minimum Inhibitory Concentration (MIC), S. aureus 77” value in assay [2] is listed as 8 :g/ml. Also, in assay [3], the “Minimum Inhibitory Concentration (MIC), Staphylococcus aureus giorgio” value is 0.5 :g/ml. Moreover, the “Minimum Inhibitory Concentration (MIC), S. epidermidis R005” value in assay [4] is listed as 8 :g/ml. Besides, the “Minimum Inhibitory Concentration (MIC), E. faecalis L239” value in assay [5] is given as 16 :g/ml.
As for `Nc1ncnc(SCSC2=C(C(=O)O)N3C(=O)[C@@H](NC(=O)CSc4cc(Cl)ccc4Cl)[C@H]3SC2)c1N` [Example I-17, (6R,7R)-3-({[(5,6-diamino-4-pyrimidinyl)sulfanyl]methyl}sulfanyl)-7-({2-[(2,5-dichlorophenyl)sulfanyl]acetyl}amino)-8-oxo-5-thia-1-azabicyclo[4.2.0]oct-2-ene-2-carboxylic acid], the MIC in assay [1] came to 2 µg/mL (≈ 3.3 µM); in assay [2] it was 0.13 µg/mL (≈ 0.215 µM); in assay [3], 0.016 µg/mL (≈ 0.0264 µM); in assay [4] it was 0.25 µg/mL (≈ 0.413 µM); in assay [5], 0.5 µg/mL (≈ 0.826 µM).
Consider `Nc1cc(SCSC2=C(C(=O)O)N3C(=O)[C@@H](NC(=O)CSc4cc(Cl)ccc4Cl)[C@H]3SC2)nc(N)n1` [Example I-1, (6R,7R)-3-({[(2,6-diamino-4-pyrimidinyl)sulfanyl]methyl}sulfanyl)-7-({2-[(2,5-dichlorophenyl)sulfanyl]acetyl}amino)-8-oxo-5-thia-1-azabicyclo[4.2.0]oct-2-ene-2-carboxylic acid], for which the MIC in assay [1] was 1 µg/mL (≈ 1.65 µM); in assay [2], 0.063 µg/mL (≈ 0.104 µM); in assay [3] it was less than 0.008 µg/mL; in assay [4] it was 0.063 µg/mL (≈ 0.104 µM); in assay [5], 0.25 µg/mL (≈ 0.413 µM).
For the compound `Nc1nc(SCSC2=C(C(=O)O)N3C(=O)[C@@H](NC(=O)CSc4cc(Cl)ccc4Cl)[C@H]3SC2)nc2cn[nH]c12` [Example I-13, (6R,7R)-3-({[(7-amino-1H-pyrazolo [4,3-d]pyrimidin-5-yl)sulfanyl]methy-1}sulfanyl)-7-({2-[(2,5-dichlorophenyl)sulfanyl]acetyl}amino)-8-oxo-5-thia-1-azabicyc-lo[4.2.0]oct-2-ene-2-carboxylic acid], the “Minimum Inhibitory Concentration (MIC), S. aureus 241” value in assay [1] is on record as 2 :g/ml. Moreover, the “Minimum Inhibitory Concentration (MIC), S. aureus 77” value in assay [2] is on record as 0.13 :g/ml. The “Minimum Inhibitory Concentration (MIC), Staphylococcus aureus giorgio” value in assay [3] is <0.008 :g/ml. Moreover, in assay [4], the “Minimum Inhibitory Concentration (MIC), S. epidermidis R005” value was 0.13 :g/ml. Further, the “Minimum Inhibitory Concentration (MIC), E. faecalis L239” value in assay [5] was 0.25 :g/ml.
As for `CSc1nc(C)cc(SCSC2=C(C(=O)O)N3C(=O)[C@@H](NC(=O)CSc4cc(Cl)ccc4Cl)[C@H]3SC2)n1` [Example I-22, (6R,7R)-7-({2-[(2,5-dichlorophenyl)sulfanyl]acetyl}amino)-3-[({[6-methyl-2-(methylsulfanyl)-4-pyrimidinyl]sulfanyl}methyl)sulfanyl]-8-oxo-5-thia-1-azabicyclo[4.2. 0]oct-2-ene-2-carboxylic acid], the MIC is 4 µg/mL (≈ 6.29 µM) in assay [1]; 0.5 µg/mL (≈ 0.787 µM) in assay [2]; less than 0.008 µg/mL in assay [3]; 0.25 µg/mL (≈ 0.393 µM) in assay [4]; 0.25 µg/mL (≈ 0.393 µM) in assay [5].
Regarding `Nc1cc(SCSC2=C(C(=O)O)N3C(=O)[C@@H](NC(=O)CSc4cc(Cl)ccc4Cl)[C@H]3SC2)nc(O)n1` [Example I-4, (6R,7R)-3-({[(6-amino-2-hydroxy-4-pyrimidinyl)sulfanyl]methyl}sulfanyl)-7-({2-[(2,5-dic hlorophenyl)sulfanyl]acetyl}amino)-8-oxo-5-thia-1-azabicyclo[4.2.0]oct-2-ene-2-carboxylic acid], the MIC is 4 µg/mL (≈ 6.59 µM) in assay [1]; 0.25 µg/mL (≈ 0.412 µM) in assay [2]; less than 0.008 µg/mL in assay [3]; 0.25 µg/mL (≈ 0.412 µM) in assay [4]; 0.5 µg/mL (≈ 0.824 µM) in assay [5].
For `CN(CC(=O)N[C@@H]1C(=O)N2C(C(=O)O)=C(SCSc3cc(N)nc(N)n3)CS[C@H]12)c1cc(Cl)ccc1Cl` [Example I-6, (6R,7R)-3-({[(2,6-diamino-4-pyrimidinyl)sulfanyl]methyl}sulfanyl)-7-({2-[2,5-dichloro(methyl)anilino]acetyl}amino)-8-oxo-5-thia-1-azabicyclo[4.2.0]oct-2-ene-2-carboxylic acid], in assay [1], the “Minimum Inhibitory Concentration (MIC), S. aureus 241” value was 8 :g/ml. Moreover, the “Minimum Inhibitory Concentration (MIC), S. aureus 77” value in assay [2] is 0.5 :g/ml. The “Minimum Inhibitory Concentration (MIC), Staphylococcus aureus giorgio” value in assay [3] is on record as 0.031 :g/ml. For the same compound, the “Minimum Inhibitory Concentration (MIC), S. epidermidis R005” value in assay [4] is 0.5 :g/ml. The “Minimum Inhibitory Concentration (MIC), E. faecalis L239” value in assay [5] is 4 :g/ml.
Regarding “(6R,7R)-2,4-diamino-6-[({[2-carboxy-7-({2-[(2,5-dichlorophenyl)sulfany-1]acetyl}amino)-8-oxo-5-thia-1-azabicyclo[4.2.0]oct-2-en-3-yl]sulfanyl}methyl)sulfanyl]-1-methylpyrimidi n-1-ium [Example I-15]”, the “Minimum Inhibitory Concentration (MIC), S. aureus 241” value in assay [1] is reported as 1 :g/ml. For the same compound, the “Minimum Inhibitory Concentration (MIC), S. aureus 77” value in assay [2] was 0.13 :g/ml. For the same compound, the “Minimum Inhibitory Concentration (MIC), Staphylococcus aureus giorgio” value in assay [3] is on record as <0.008 :g/ml. Besides, the “Minimum Inhibitory Concentration (MIC), S. epidermidis R005” value in assay [4] is 0.13 :g/ml. Besides, the “Minimum Inhibitory Concentration (MIC), E. faecalis L239” value in assay [5] was 0.25 :g/ml.
Regarding `Nc1cc[n+](N)c(SCSC2=C(C(=O)O)N3C(=O)[C@@H](NC(=O)CSc4cc(Cl)ccc4Cl)[C@H]3SC2)n1` [Example I-7, 1,4-diamino-2-[({[(6R,7R)-2-carboxy-7-({2-[(2,5-dichlorophenyl)sulfanyl]ac-etyl}amino)-8-oxo-5-thia-1-azabicyclo[4.2.0]oct-2-en-3-yl)sulfanyl}methyl)sulfanyl]pyri-midin-1-ium], the “Minimum Inhibitory Concentration (MIC), S. aureus 241” value in assay [1] was 2 :g/ml. Besides, the “Minimum Inhibitory Concentration (MIC), S. aureus 77” value in assay [2] was 0.13 :g/ml. Moreover, the “Minimum Inhibitory Concentration (MIC), Staphylococcus aureus giorgio” value in assay [3] is <0.008 :g/ml. The “Minimum Inhibitory Concentration (MIC), S. epidermidis R005” value in assay [4] is 0.063 :g/ml. The “Minimum Inhibitory Concentration (MIC), E. faecalis L239” value in assay [5] is listed as 0.13 :g/ml.
Regarding “(6R,7R)-2,4-diamino-6-[({[2-carboxy-7-({2-[(2,5-dichlorophenyl)sulfany-1]acetyl}amino)-8-oxo-5-thia-1-azabicyclo[4.2.0]oct-2-en-3-yl]sulfanyl}methyl)sulfanyl]-1-ethyl-1,3,5-tria zine-1,3-diium [Example I-20]”, the “Minimum Inhibitory Concentration (MIC), S. aureus 241” value in assay [1] is listed as 8 :g/ml. In assay [2], the “Minimum Inhibitory Concentration (MIC), S. aureus 77” value is reported as 1 :g/ml. In addition, the “Minimum Inhibitory Concentration (MIC), Staphylococcus aureus giorgio” value in assay [3] is given as <0.008 :g/ml. In assay [4], the “Minimum Inhibitory Concentration (MIC), S. epidermidis R005” value was 0.5 :g/ml. In assay [5], the “Minimum Inhibitory Concentration (MIC), E. faecalis L239” value is 0.5 :g/ml.
On to `Nc1nc(O)cc(SCSC2=C(C(=O)O)N3C(=O)[C@@H](NC(=O)CSc4cc(Cl)ccc4Cl)[C@H]3SC2)n1` [Example I-2, (6R,7R)-3-({[(2-amino-6-hydroxy-4-pyrimidinyl)sulfanyl]methyl}sulfanyl)-7-({2-[(2,5-dic hlorophenyl)sulfanyl]acetyl}amino)-8-oxo-5-thia-1-azabicyclo[4.2.0]oct-2-ene-2-carboxylic acid], for which the MIC is 1 µg/mL (≈ 1.65 µM) in assay [1]; 0.13 µg/mL (≈ 0.214 µM) in assay [2]; less than 0.008 µg/mL in assay [3]; 0.063 µg/mL (≈ 0.104 µM) in assay [4]; 0.25 µg/mL (≈ 0.412 µM) in assay [5].

These data come from US20030166922A1, “Novel cephalosporin compounds and process for preparing the same” (priority 2000, published 2003).
